Results published in US10322995B2, “Substituted cyano cycloalkyl penta-2,4-dienes, cyano cycloalkyl pent-2-en-4-ynes, cyano heterocyclyl penta-2,4-dienes and cyano heterocyclyl pent-2-en-4-ynes as active substances against abiotic plant stress” (BAYER CROPSCIENCE AKTIENGESELLSCHAFT, priority 2014, dated 2019).

What follows are compounds tested against T1, phosphatase ABI1 via the co-regulator RCAR11/PYR1 (Arabidopsis thaliana, UniProt O49686+P49597) (assay: In vitro assay: inhibition of the phosphatase ABI1 via the co-regulator RCAR11/PYR1, MUP dephosphorylation, fluorescence). Conditions: MUP dephosphorylation, fluorescence 460 nm; read-out: ABI1 inhibition.
T1 sequence (O49686 1-191): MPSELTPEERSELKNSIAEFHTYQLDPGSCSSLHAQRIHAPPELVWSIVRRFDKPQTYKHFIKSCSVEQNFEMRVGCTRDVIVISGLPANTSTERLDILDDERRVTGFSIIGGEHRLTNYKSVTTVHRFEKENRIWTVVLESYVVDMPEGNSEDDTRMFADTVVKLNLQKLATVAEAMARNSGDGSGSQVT
T1 sequence (P49597 1-434): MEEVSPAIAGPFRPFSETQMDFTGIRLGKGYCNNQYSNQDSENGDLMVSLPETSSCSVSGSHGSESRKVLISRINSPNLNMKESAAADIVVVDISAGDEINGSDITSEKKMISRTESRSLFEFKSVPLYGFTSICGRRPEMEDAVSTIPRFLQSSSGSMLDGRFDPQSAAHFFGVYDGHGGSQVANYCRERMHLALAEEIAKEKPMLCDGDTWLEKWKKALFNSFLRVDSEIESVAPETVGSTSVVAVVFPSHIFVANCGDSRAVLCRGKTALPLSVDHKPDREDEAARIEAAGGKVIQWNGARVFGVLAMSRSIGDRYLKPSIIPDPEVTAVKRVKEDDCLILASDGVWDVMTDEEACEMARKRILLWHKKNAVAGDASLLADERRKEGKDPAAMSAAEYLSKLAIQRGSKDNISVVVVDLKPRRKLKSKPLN
Type: biochemical
Design: inhibition: dose or concentration left out as unconfirmed
Source text: Effects of the phytohormone abscisic acid (ABA) on the behaviour of plants under abiotic stress and the mechanism of action of ABA are described in the literature (cf. Abrams et al, WO97/23441, Cutler, Park et al. Science, 2009, 324, 1068; Grill et al. Science, 2009, 324, 1064; Tanokura et al. Biophysics, 2011, 7, 123; Schroeder et al. Plant J. 2010, 61, 290). Therefore, it is possible with the aid of a suitable in vitro test system to derive a correlation between the action of ABA and the stress response of a plant under abiotic stress. Under drought stress, plants form the phytohormone abscisic acid (ABA). This binds, along with a co-regulator (Regulatory Component of ABA-Receptor=RCAR according to Grill et al. Science, 2009, 324, 1064 or PYR/PYL according to Cutler et al. Science, 2009, 324, 1068), to a phosphatase (e.g. ABI1, a type 2C protein phosphatase, also abbreviated to PP2C) and inhibits its activity. As a result, a “downstream” kinase (e.g. SnRK2) is no longer dephosphorylated. This kinase, which is thus active, via phosphorylation of transcription factors (e.g. AREB/ABF, vgl. Yoshida et al., Plant J. 2010, 61, 672), switches on a genetic protection programme to increase drought stress tolerance.
The assay described hereinafter utilizes the inhibition of the phosphatase ABI1 via the co-regulator RCAR11/PYR1 aus Arabidopsis thaliana.
For the determination of activity, the dephosphorylation of 4-methylumbelliferyl phosphate (MUP) was measured at 460 nm. The in vitro assay was conducted in Greiner 384-well PS microplates F-well, using two controls: a) dimethyl sulphoxide (DMSO) 0.5% (f.c.) and b) 5 μM (f.c.) abscisic acid (ABA). […] The substance solution thus obtained, if necessary, was stirred with esterase from porcine liver (EC 3.1.1.1) at room temperature for 3 h and centrifuged at 4000 rpm for 30 min. A total volume of 45 μl was introduced into each cavity of the microplate, having the following composition: • 1) 5 μl of substance solution, i.e. a) DMSO 5% or b) abscisic acid solution or c) the corresponding example compound of the general formula (I) dissolved in 5% DMSO. • 2) 20 μl of enzyme buffer mix, composed of a) 40% by vol. of enzyme buffer (10 ml contain equal proportions by volume of 500 mM Tris-HCl pH8, 500 mM NaCl, 3.33 mM MnCl2, 40 mM dithiothreitol (DTT)), b) 4% by vol. of ABI1 dilution (protein stock solution was diluted so as to give, after addition, a final concentration in the assay of 0.15 μg ABI1/well), c) 4% by vol. of RCAR11 dilution (enzyme stock was diluted so as to give, on addition of the dilution to the enzyme buffer mix, a final concentration in the assay of 0.30 μg enzyme/well), d) 5% by vol. of Tween20 (1%), e) 47% by vol. H2O bi-dist. • 3) 20 μl of substrate mix, composed of a) 10% by vol. of 500 mM Tris-HCl pH8, b) 10% by vol. of 500 mM NaCl, c) 10% by vol. of 3.33 mM MnCl2, d) 5% by vol. of 25 mM MUP, 5% by vol. of Tween20 (1%), 60% by vol. of H2O bi-dist.
Enzyme buffer mix and substrate mix were made up 5 minutes prior to the addition and warmed to a temperature of 35° C. On completion of pipetting of all the solutions and on completion of mixing, the plate was incubated at 35° C. for 20 minutes. Finally, a relative fluorescence measurement was made at 35° C. with a BMG Labtech “POLARstar Optima” microplate reader using a 340/10 nm excitation filter and a 460 nm emission filter. The efficacy of the compounds of the general formula (I) is reported in the table which follows using abscisic acid (No. 64) as comparative substance according to the following classification: ++++ (inhibition≥90%), +++ (90%>inhibition≥70%), ++ (70%>inhibition≥50%), +(50%>inhibition≥30%).
Effects of selected compounds of the general formula (I) in the above-described in vitro assay at a concentration of 5 mM of the substance of the general formula (I) in question in a solution of DMSO and water: […]
With `CCC(=C/C(=O)OC)/C=C/C(O)(C1CCCCC1)C1(C#N)CC1` (stereo not drawn) [I.2-579, Methyl (2Z,4E)-6-(1-cyanocyclopropyl)-6-cyclohexyl-3-ethyl-6-hydroxyhexa-2,4-dienoate] the inhibition was over 90%.
Compound `CCOC(=O)/C=C(/C)C#CC(O)(c1ccccc1)C1(C#N)CC1` (stereo not drawn) [I.1.236] has an inhibition of over 90%.
With `CCC(CC)C(O)(/C=C/C(=C\C(=O)OC)C(F)(F)F)C1(C#N)CC1` (stereo not drawn) [I.2-585, Methyl (2E,4E)-6-(1-cyanocyclopropyl)-7-ethyl-6-hydroxy-3-(trifluoromethyl)nona-2,4-dienoate] the inhibition was over 90%.

Same assay, conditions: concentration of 5 mM of the substance in a solution of DMSO and water; MUP dephosphorylation, fluorescence 460 nm
For `CCC(C#CC(O)(c1ccc(C)cc1)C1(C#N)CC1)=CC(=O)OCCOC` (racemic) [I.1-801], the ABI1 inhibition was “++++ (inhibition≥90%)”.
In the case of `COC(=O)C=C(C#CC(O)(c1cccc(F)c1)C1(C#N)CC1)C(F)(F)F` (racemic) [I.1-782], the ABI1 inhibition is reported as “+++ (90%>inhibition≥70%)”.
With `COC(=O)/C=C(\C#CC(O)(C(C)C)C1(C#N)CC1)C(F)(F)F` (stereo not drawn) [I.1-120] the ABI1 inhibition was “+++ (90%>inhibition≥70%)”.
`COC(=O)/C=C(\C#CC(O)(C1CC1)C1(C#N)CC1)C(F)(F)F` (stereo not drawn) [I.1-632] was tested, and the ABI1 inhibition was “++++ (inhibition≥90%)”.
With `CC/C(C#CC(O)(c1ccc(F)cc1)C1(C#N)CC1)=C/C(=O)NC(C)C` (stereo not drawn) [I.1-558] the ABI1 inhibition was “++ (70%>inhibition≥50%)”.
In the case of `CCCC(C#CC(O)(c1cccc(F)c1)C1(C#N)CC1)=CC(=O)O` (racemic) [I.1-773], the ABI1 inhibition is reported as “+++ (90%>inhibition≥70%)”.
With `CCCOC(=O)C=C(C#CC(O)(c1ccc(C)cc1)C1(C#N)CC1)C(F)(F)F` (racemic) [I.1-888] the ABI1 inhibition was “+++ (90%>inhibition≥70%)”.
For `CCOC(=O)/C=C(\C#CC(O)(c1ccccc1)C1(C#N)CC1)CC` (stereo not drawn) [I.1-203], the ABI1 inhibition was “++++ (inhibition≥90%)”.
For `CCCOC(=O)/C=C(\C#CC(O)(c1ccc(F)cc1)C1(C#N)CC1)CC` (stereo not drawn) [I.1-613], the ABI1 inhibition was “++++ (inhibition≥90%)”.
With `CCOC(=O)C=C(C)C#CC(O)(c1ccc(C)cc1)C1(C#N)CC1` (racemic) [I.1-822] the ABI1 inhibition was “+++ (90%>inhibition≥70%)”.
For `CC/C(C#CC(O)(c1ccc(F)cc1)C1(C#N)CC1)=C/C(=O)OCCOC` (stereo not drawn) [I.1-614], the ABI1 inhibition was “++++ (inhibition≥90%)”.
In the case of `CCOC(=O)C=C(C#CC(O)(c1cccc(F)c1)C1(C#N)CC1)C(F)(F)F` (racemic) [I.1-783], the ABI1 inhibition is reported as “+++ (90%>inhibition≥70%)”.
`CCOC(=O)C=C(C#CC(O)(c1ccc(C)cc1)C1(C#N)CC1)C(F)(F)F` (racemic) [I.1-813] was tested, and the ABI1 inhibition was “+++ (90%>inhibition≥70%)”.
`CCOC(=O)/C=C(/C)C#CC(C)(O)C1(C#N)CC1` (stereo not drawn) [I.1-36] was tested, and the ABI1 inhibition was “+++ (90%>inhibition≥70%)”.
For `CCCOC(=O)C=C(C=CC(O)(C1CCCCC1)C1(C#N)CC1)C(F)(F)F` (racemic) [I.2-582], the ABI1 inhibition was “++++ (inhibition≥90%)”.
With `CCC(C#CC(O)(c1cccc(F)c1)C1(C#N)CC1)=CC(=O)OC` (racemic) [I.1-768] the ABI1 inhibition was “++++ (inhibition≥90%)”.
`CCOC(=O)C=C(C)C#CC(O)(c1cccc(F)c1)C1(C#N)CC1` (racemic) [I.1-792] was tested, and the ABI1 inhibition was “+++ (90%>inhibition≥70%)”.
For `CCOC(=O)C=C(C=CC(O)(C(C)C)C1(C#N)CC1)C1CCCC1` (racemic) [I.2-130], the ABI1 inhibition was “+++ (90%>inhibition≥70%)”.
In the case of `CCC(C#CC(O)(c1ccc(C)cc1)C1(C#N)CC1)=CC(=O)OC` (racemic) [I.1-798], the ABI1 inhibition is reported as “++++ (inhibition≥90%)”.
In the case of `COC(=O)C=C(C=CC(O)(C1CCCCC1)C1(C#N)CC1)C(F)(F)F` (racemic) [I.2-581], the ABI1 inhibition is reported as “++++ (inhibition≥90%)”.
In the case of `CC/C(C#CC(O)(c1ccccc1)C1(C#N)CC1)=C/C(=O)OCCOC` (stereo not drawn) [I.1-610], the ABI1 inhibition is reported as “++++ (inhibition≥90%)”.
With `CC/C(C#CC(O)(c1ccc(F)cc1)C1(C#N)CC1)=C/C(=O)NC1CC1` (stereo not drawn) [I.1-557] the ABI1 inhibition was “++ (70%>inhibition≥50%)”.
`COC(=O)/C=C(\C#CC(O)(c1ccc(F)cc1)C1(C#N)CC1)C(F)(F)F` (stereo not drawn) [I.1-520] was tested, and the ABI1 inhibition was “++++ (inhibition≥90%)”.
In the case of `COC(=O)/C=C(\C#CC(O)(c1ccccc1)C1(C#N)CC1)C(F)(F)F` (stereo not drawn) [I.1-220], the ABI1 inhibition is reported as “++++ (inhibition≥90%)”.
For `CCOC(=O)C=C(C#CC(O)(C(CC)CC)C1(C#N)CC1)C(F)(F)F` (racemic) [I.1-723], the ABI1 inhibition was “+++ (90%>inhibition≥70%)”.
For `COC(=O)/C=C(\C#CC(O)(C1CCCCC1)C1(C#N)CC1)C(F)(F)F` (stereo not drawn) [I.1-692], the ABI1 inhibition was “+++ (90%>inhibition≥70%)”.
In the case of `CC(C=CC(O)(C(C)C)C1(C#N)CC1)=CC(=O)O` (racemic) [I.2-134], the ABI1 inhibition is reported as “++++ (inhibition≥90%)”.

Same assay, conditions: read-out: ABI1 inhibition
In the case of `CC1=CC(=O)CC(C)(C)[C@@]1(O)/C=C/C(C)=C\C(=O)O` [abscisic acid, reference compound], the inhibition is reported as over 90%.

What follows are compounds tested on Brassica napus (BRSNS) (assay: In vivo analyses Part B: drought stress, appearance vs stressed control plants in categories (BRSNS)). Conditions: spray application 250 g/ha, category vs stressed control plants, 2-3 pots.
Design: key: 0: no positive effect; 10: slight positive effect; 20: clear positive effect; 30: strong positive effect
Description: Seeds of monocotyledonous and dicotyledonous crop plants were sown in sandy loam in plastic pots, covered with soil or sand and cultivated in a greenhouse under good growth conditions. The test plants were treated at the early leaf stage (BBCH10-BBCH13). To assure uniform water supply before commencement of stress, the potted plants were supplied with water by dam irrigation prior to substance application. The inventive compounds, formulated in the form of wettable powders (WP), were sprayed onto the green parts of the plants as an aqueous suspension at an equivalent water application rate of 600 I/ha with addition of 0.2% wetting agent (e.g. agrotin). Substance application was followed immediately by stress treatment of the plants. Drought stress was induced by gradual drying out under the following conditions: “Day”: 14 hours with illumination at 26-30° C. “Night”: 10 hours without illumination at 18-20° C. The duration of the respective stress phases was guided mainly by the condition of the stressed control plants. It was ended (by re-irrigating and transfer to a greenhouse with good growth conditions) as soon as irreversible damage was observed on the stressed control plants. The end of the stress phase was followed by an about 4-7-day recovery phase, during which the plants were once again kept under good growth conditions in a greenhouse. The duration of the recovery phase was guided mainly by when the trial plants had attained a state which enabled visual scoring of potential effects, and was therefore variable. Once this juncture had been reached, the appearance of the plants treated with test substances was recorded in comparison to the stressed control plants by the following categories: [table] In order to rule out any influence on the effects observed by any fungicidal or insecticidal action of the test compounds, it was additionally ensured that the tests proceeded without fungal infection or insect infestation. For each substance and dosage, 2-3 pots were treated and evaluated. BRSNS=Brassica napus
In the case of `COC(=O)/C=C(\C#CC(O)(C(C)C)C1(C#N)CC1)C(F)(F)F` (stereo not drawn) [I.1-120], the “Effect (BRSNS)” value is reported as 20.
For `CC/C(C#CC(O)(c1ccc(F)cc1)C1(C#N)CC1)=C/C(=O)OCCOC` (stereo not drawn) [I.1-614], the “Effect (BRSNS)” value was 10-20.
